From ChEMBL document CHEMBL1201862, “PubChem BioAssay data set” (2004) come the findings set out here.

Test systems include A549; CAKI-1; COLO 205; HCT-116; HCT-15; HT-29; IGROV-1; K562; KM12; MOLT-4; NCI-H226; OVCAR-4; SF-268; SR; SW-620; UACC-257; DU-145; MCF7; MDA-MB-231.
Common to all, as to assay: growth of human tumour cells (NCI), 48 h

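Protocol summary: plate cells (96-well), add compound at 5 concentrations, incubate 48 h, interpolate endpoints linearly. GI50: concentration for 50% inhibition of growth.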 Activity calls are given as the source filed them. Rule as the data show it: active = GI50 up to about 1.1 µM and inactive = higher.

Take `COC(=O)C1Cc2c(n(Cc3ccccc3)c3ccccc23)C(CCC(=O)O)N1C(C)C` (configuration not stated): the GI50 in the assay with A549 is > 100 µM (inactive); in the assay on CAKI-1 it was > 100 µM (inactive); in the assay with COLO 205 it was > 100 µM (inactive); in the assay on HCT-116, > 100 µM (inactive); in the assay with HCT-15, more than 100 µM; in the assay on HT-29, > 100 µM (inactive). Moreover, the GI50 in the assay with IGROV-1, in the assay with K562, in the assay with KM12, in the assay with MOLT-4, in the assay with NCI-H226 and in the assay on OVCAR-4 was > 100 µM (inactive) in each case. Besides, the GI50 with SF-268, with SR, with SW-620 and with UACC-257 was > 100 µM (inactive) in each case.
Consider `CNC(=O)NCCN1N=C(C)/C(=C\c2ccccc2)CC1=O`, for which the GI50 in the assay on A549, with CAKI-1, with HCT-116, with HT-29, in the assay on IGROV-1 and in the assay on K562 was > 100 µM (inactive) throughout. Further, the GI50 in the assay with KM12, with MOLT-4, in the assay on NCI-H226, in the assay on OVCAR-4, in the assay with SF-268 and in the assay on SR was > 100 µM (inactive) in each case. Further, the GI50 in the assay on SW-620 and in the assay with UACC-257 was > 100 µM (inactive) each time.
Turning to `Cc1ccc(S(=O)(=O)N2CCCCC2CCO)cc1` (configuration not stated), the GI50 in the assay on A549 was > 100 µM (inactive); with CAKI-1 it was > 100 µM (inactive); with COLO 205, > 100 µM (inactive); in the assay with HCT-116, > 100 µM (inactive); in the assay on HCT-15, more than 100 µM; in the assay on HT-29, > 100 µM (inactive). The GI50 in the assay with IGROV-1, in the assay with K562, in the assay with KM12, in the assay on MOLT-4, with NCI-H226 and with OVCAR-4 was > 100 µM (inactive) in each case. Besides, the GI50 with SF-268, with SR, in the assay with SW-620 and in the assay on UACC-257 was > 100 µM (inactive) throughout.
As for `CN(C)/C=N\c1ccn(CCO)c(=O)n1`, the GI50 in the assay with A549 was > 100 µM (inactive); with COLO 205, > 100 µM (inactive); in the assay on HCT-116 it was > 100 µM (inactive); with HCT-15, more than 100 µM; in the assay on HT-29 it was > 100 µM (inactive); in the assay with IGROV-1 it was > 100 µM (inactive). The GI50 with K562, in the assay on KM12, in the assay with MOLT-4, in the assay with NCI-H226, in the assay with OVCAR-4 and in the assay on SF-268 was > 100 µM (inactive) each time. Also, the GI50 in the assay with SR, with SW-620 and in the assay with UACC-257 was > 100 µM (inactive) in each case.
Regarding `COc1ccc(/C(Cl)=C(\c2ccc(OCCN(C)C)cc2)c2ccc(OC(=O)C(C)(C)C)cc2)cc1`, the GI50 in the assay on A549 was 15 µM (inactive); with CAKI-1, 14.7 µM (inactive); in the assay on COLO 205 it was 13.9 µM (inactive); in the assay with HCT-116, 12.1 µM (inactive); in the assay on HCT-15, 10.6 µM; with HT-29, 3.85 µM (inactive). The GI50 in the assay on IGROV-1 is 17.7 µM (inactive); with K562, 3.01 µM (inactive); with KM12, 13.5 µM (inactive); with MOLT-4 it was 2.91 µM (inactive); in the assay with NCI-H226, 12.9 µM (inactive); in the assay with OVCAR-4 it was 13.9 µM (inactive). Further, the GI50 in the assay with SF-268 is 13.7 µM (inactive); in the assay on SR, 7.69 µM (inactive); in the assay with SW-620, 13.2 µM (inactive).
Turning to `CCOC(=O)CCC(NC(=O)c1ccc(CNc2nc3ccccc3nc2C(=O)OCC)cc1)C(=O)OCC` (configuration not stated), the GI50 in the assay on A549 is > 100 µM (inactive); in the assay with COLO 205, > 100 µM (inactive); in the assay on DU-145, > 100 µM (inactive); in the assay on HCT-116 it was > 100 µM (inactive); in the assay with HCT-15, more than 100 µM; with HT-29, > 100 µM (inactive). Moreover, the GI50 with IGROV-1 was 43.7 µM (inactive); in the assay with K562, > 100 µM (inactive); with KM12, > 100 µM (inactive); in the assay with MCF7, > 100 µM (inactive); in the assay on MDA-MB-231 it was 24.9 µM (inactive); in the assay on MOLT-4, > 100 µM (inactive). For the same compound, the GI50 in the assay on NCI-H226, with SF-268 and in the assay on SW-620 was > 100 µM (inactive) in each case.
As for `C/C(=C1/CCC/C(=C(/C)c2ccccc2)C1=O)c1ccccc1`, the GI50 with A549 is 31.8 µM (inactive); with COLO 205 it was 65.6 µM (inactive); with HCT-116, 18.5 µM (inactive); with HCT-15 it was 31.6 µM; in the assay on HT-29, 26.4 µM (inactive); in the assay with IGROV-1 it was 79.4 µM (inactive). Besides, the GI50 is 18.3 µM (inactive) in the assay with K562; 27 µM (inactive) with KM12; 21.5 µM (inactive) in the assay with MOLT-4; 17.4 µM (inactive) in the assay on NCI-H226; 46.3 µM (inactive) in the assay with OVCAR-4; 45.7 µM (inactive) with SF-268. Also, the GI50 is 14.6 µM (inactive) with SR, 80 µM (inactive) in the assay with SW-620 and 25 µM (inactive) with UACC-257.
Consider `O=S1(=O)COc2ccccc2-c2ncncc21`, for which the GI50 in the assay with A549 was > 100 µM (inactive); in the assay with CAKI-1 it was > 100 µM (inactive); in the assay on COLO 205 it was > 100 µM (inactive); with HCT-116, > 100 µM (inactive); in the assay with HCT-15, more than 100 µM; in the assay on HT-29 it was > 100 µM (inactive). For the same compound, the GI50 in the assay on IGROV-1, in the assay with K562, in the assay with KM12, in the assay on MOLT-4, with NCI-H226 and in the assay on OVCAR-4 was > 100 µM (inactive) in each case. The GI50 with SF-268, with SR, in the assay on SW-620 and with UACC-257 was > 100 µM (inactive) each time.
On to `Cc1ccccc1-c1cc(=O)c2cc(C)c(C)c(C(=O)O)c2o1`, for which the GI50 was > 100 µM (inactive) in the assay with A549; > 100 µM (inactive) with CAKI-1; > 100 µM (inactive) in the assay on COLO 205; > 100 µM (inactive) in the assay with HCT-116; more than 100 µM in the assay on HCT-15; > 100 µM (inactive) in the assay on HT-29. Moreover, the GI50 with IGROV-1, in the assay on K562, with KM12, in the assay with MOLT-4, in the assay on NCI-H226 and with OVCAR-4 was > 100 µM (inactive) each time. The GI50 with SR, with SW-620 and with UACC-257 was > 100 µM (inactive) each time.
For `Oc1nnc(CNc2ccc(Cl)cc2Cl)c2ccccc12`, the GI50 is 17.7 µM (inactive) with A549; 24.1 µM (inactive) with CAKI-1; 45.8 µM (inactive) in the assay with COLO 205; 22.8 µM (inactive) in the assay on HCT-116; 20.1 µM with HCT-15; 31.8 µM (inactive) in the assay on HT-29. The GI50 is 25.5 µM (inactive) in the assay with IGROV-1; 44.9 µM (inactive) in the assay with K562; 39.3 µM (inactive) in the assay with KM12; 31.5 µM (inactive) with MOLT-4; 36.1 µM (inactive) in the assay on NCI-H226; 16.5 µM (inactive) in the assay on OVCAR-4. The GI50 with SF-268 was 19.9 µM (inactive); in the assay on SR it was 32.7 µM (inactive); in the assay on SW-620 it was 37.1 µM (inactive); in the assay with UACC-257 it was 33.4 µM (inactive).
As for `CC[C@H]1CNC(=O)CC1CC(=O)OC` (some centres not stated), the GI50 in the assay with A549 was > 100 µM (inactive); with CAKI-1, > 100 µM (inactive); in the assay with HCT-116 it was > 100 µM (inactive); in the assay with HCT-15, more than 100 µM; in the assay with HT-29 it was > 100 µM (inactive); with IGROV-1 it was > 100 µM (inactive). The GI50 in the assay with KM12, with MOLT-4, with NCI-H226, in the assay on OVCAR-4, with SF-268 and in the assay with SR was > 100 µM (inactive) throughout. Also, the GI50 with SW-620 and in the assay on UACC-257 was > 100 µM (inactive) each time.
In the case of `CCC(Oc1ccc(OC)c2c1C(=O)CCC2)C(=O)O` (configuration not stated), the GI50 with A549 is > 100 µM (inactive); with COLO 205, > 100 µM (inactive); with HCT-15, more than 100 µM; in the assay on HT-29 it was > 100 µM (inactive); in the assay with IGROV-1 it was > 100 µM (inactive); in the assay on K562, > 100 µM (inactive). Besides, the GI50 with KM12, in the assay on MOLT-4, with NCI-H226, in the assay on OVCAR-4, with SF-268 and in the assay with SR was > 100 µM (inactive) throughout. Further, the GI50 in the assay on SW-620 and in the assay with UACC-257 was > 100 µM (inactive) in each case.
`CCc1cc(Cc2cc(Cl)c(NC(=O)C(=O)C3NC(=O)NC3=O)c(CC)c2)cc(Cl)c1NC(=O)C(=O)C1NC(=O)NC1=O` (configuration not stated): the GI50 with A549 is 75 µM (inactive); in the assay on CAKI-1 it was > 100 µM (inactive); in the assay on COLO 205, 57.8 µM (inactive); with HCT-116, 31.3 µM (inactive); with HCT-15, 17.3 µM; in the assay with HT-29, 26.1 µM (inactive). Besides, the GI50 in the assay on IGROV-1 was > 100 µM (inactive); with K562, 37.2 µM (inactive); in the assay on KM12, > 100 µM (inactive); with MOLT-4 it was 66.5 µM (inactive); in the assay with NCI-H226, > 100 µM (inactive); in the assay with OVCAR-4, > 100 µM (inactive). Moreover, the GI50 was 20.7 µM (inactive) in the assay on SF-268, 37.2 µM (inactive) in the assay with SR, 8.47 µM (inactive) with SW-620 and 30.6 µM (inactive) in the assay on UACC-257.
